Laboratory results taken from ChEMBL document CHEMBL1201862, “PubChem BioAssay data set” (2004).
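Assay format: 96-well plates, 48-hour exposure. GI50: concentration for 50% inhibition of growth.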 Calls of active or inactive are those of the source. Cut-off read from the data, not from the text of the source: active = GI50 up to about 1.1 µM and inactive = higher.

Experiments:
Assay in all cases: NCI anticancer screen, dose series, 48 h
UACC-257 = test system: UACC-257
Malme-3M = test system: Malme-3M
SW-620 = test system: SW-620
NCI-H460 = test system: NCI-H460
CCRF-CEM = test system: CCRF-CEM
SK-OV-3 = test system: SK-OV-3
HL-60 = test system: HL-60
SNB-78 = test system: SNB-78
OVCAR-3 = test system: OVCAR-3
DMS-273 = test system: DMS-273
M19-MEL = test system: M19-MEL
IGROV-1 = test system: IGROV-1
HCC 2998 = test system: HCC 2998
SF-268 = test system: SF-268
U-251 = test system: U-251
NCI-H226 = test system: NCI-H226
LOX IMVI = test system: LOX IMVI
SF-295 = test system: SF-295
HT-29 = test system: HT-29
OVCAR-5 = test system: OVCAR-5
XF498 = test system: XF498
DLD-1 = test system: DLD-1
HOP-18 = test system: HOP-18
K562 = test system: K562
KM12 = test system: KM12
A549 = test system: A549
COLO 205 = test system: COLO 205
RPMI-8226 = test system: RPMI-8226
HOP-62 = test system: HOP-62
SF-539 = test system: SF-539
NCI-H522 = test system: NCI-H522
SNB-75 = test system: SNB-75
SN12C = test system: SN12C
A498 = test system: A498
MOLT-4 = test system: MOLT-4
RXF 393 = test system: RXF 393
MCF7 = test system: MCF7
SK-MEL-2 = test system: SK-MEL-2
EKVX = test system: EKVX
SK-MEL-28 = test system: SK-MEL-28
DMS-114 = test system: DMS-114
HCT-116 = test system: HCT-116
OVCAR-4 = test system: OVCAR-4
HCT-15 = test system: HCT-15
OVCAR-8 = test system: OVCAR-8
SNB-19 = test system: SNB-19
KM-20L2 = test system: KM-20L2
NCI/ADR-RES = test system: NCI/ADR-RES
SK-MEL-5 = test system: SK-MEL-5
UO-31 = test system: UO-31
UACC-62 = test system: UACC-62
NCI-H23 = test system: NCI-H23

CC(C)(C)OC(=O)NC1CCC(C(C)(C)C)CC1 (configuration not stated)
GI50 (UACC-257): 19.5 µM (inactive) | GI50 (Malme-3M): 33.2 µM (inactive) | GI50 (SW-620): > 64.3 µM (inactive) | GI50 (NCI-H460): > 77.3 µM (inactive) | GI50 (CCRF-CEM): 36.1 µM (inactive) | GI50 (SK-OV-3): > 100 µM (inactive) | GI50 (HL-60): 15.2 µM (inactive) | GI50 (SNB-78): > 100 µM (inactive) | GI50 (OVCAR-3): 58.6 µM (inactive) | GI50 (DMS-273): > 51.2 µM (inactive) | GI50 (M19-MEL): 31.3 µM (inactive) | GI50 (IGROV-1): > 100 µM (inactive) | GI50 (HCC 2998): > 87.1 µM (inactive) | GI50 (SF-268): > 100 µM (inactive) | GI50 (U-251): 38.4 µM (inactive) | GI50 (NCI-H226): 26.4 µM (inactive) | GI50 (LOX IMVI): 40.9 µM (inactive) | GI50 (SF-295): 26.5 µM (inactive) | GI50 (HT-29): 22.3 µM (inactive) | GI50 (OVCAR-5): > 100 µM (inactive) | GI50 (XF498): > 52.2 µM (inactive) | GI50 (DLD-1): > 100 µM (inactive) | GI50 (HOP-18): > 82.8 µM (inactive) | GI50 (K562): 51.1 µM (inactive) | GI50 (KM12): > 81.7 µM (inactive) | GI50 (A549): 43.8 µM (inactive) | GI50 (COLO 205): > 65.5 µM (inactive) | GI50 (RPMI-8226): 27.3 µM (inactive) | GI50 (HOP-62): > 91 µM (inactive) | GI50 (SF-539): > 100 µM (inactive) | GI50 (NCI-H522): 85.1 µM (inactive) | GI50 (SNB-75): 40.7 µM (inactive) | GI50 (SN12C): > 77.8 µM (inactive) | GI50 (A498): > 100 µM (inactive) | GI50 (MOLT-4): 23.9 µM (inactive) | GI50 (RXF 393): 31.3 µM (inactive) | GI50 (MCF7): 44.5 µM (inactive) | GI50 (SK-MEL-2): 23.3 µM (inactive) | GI50 (EKVX): > 64.1 µM (inactive) | GI50 (SK-MEL-28): > 100 µM (inactive) | GI50 (DMS-114): 34 µM (inactive) | GI50 (HCT-116): 43.1 µM (inactive) | GI50 (OVCAR-4): > 74.3 µM (inactive) | GI50 (HCT-15): > 79.6 µM | GI50 (OVCAR-8): > 89.7 µM (inactive) | GI50 (SNB-19): 95.7 µM (inactive) | GI50 (KM-20L2): 37.9 µM (inactive) | GI50 (NCI/ADR-RES): 99.1 µM (inactive) | GI50 (SK-MEL-5): 27.7 µM (inactive) | GI50 (UO-31): 59.2 µM (inactive) | GI50 (UACC-62): 37.4 µM (inactive) | GI50 (NCI-H23): > 83 µM (inactive)
